Values quoted from earlier work as cited in patent US20020165594A1, “Apparatus and method of photodynamic eradication of organisms utilizing pyrrolnitrin” (Merrill A. Biel, priority 2001, published 2002).

Conditions: orally and intravenously in high doses

In the case of `CN(C)c1ccc2nc3ccc(=[N+](C)C)cc-3sc2c1` [Methylene blue], the “toxic effects on administration to humans” value is listed as “without any toxic effects”.
